Data on eleven compounds can be found in ChEMBL document CHEMBL5236572, “Bioactive Aurones, Indanones, and Other Hemiindigoid Scaffolds: Medicinal Chemistry and Photopharmacology Perspectives” (J Med Chem, 2022).

The subject of one test is Ehrlich. Nature of the test: Antitumor activity against mouse Ehrlich ascites carcinoma allografted in Swiss albino mouse assessed as tumor growth inhibition at 20 mg/kg, ip for 12 days. The test is classed as functional. The conditions noted are these: 288 h, time 12 day, read-out: TGI.
For test [1], the target named is Amyloid-beta precursor protein (Homo sapiens, UniProt P05067). Description: Binding affinity to human brain homogenate amyloid beta by radioligand competition binding assay. The test is classed as tissue-based. (In general: In a radioligand displacement assay an active substance lowers the binding of a labelled ligand.)
Amyloid-beta precursor protein, sequence (P05067 whole entry): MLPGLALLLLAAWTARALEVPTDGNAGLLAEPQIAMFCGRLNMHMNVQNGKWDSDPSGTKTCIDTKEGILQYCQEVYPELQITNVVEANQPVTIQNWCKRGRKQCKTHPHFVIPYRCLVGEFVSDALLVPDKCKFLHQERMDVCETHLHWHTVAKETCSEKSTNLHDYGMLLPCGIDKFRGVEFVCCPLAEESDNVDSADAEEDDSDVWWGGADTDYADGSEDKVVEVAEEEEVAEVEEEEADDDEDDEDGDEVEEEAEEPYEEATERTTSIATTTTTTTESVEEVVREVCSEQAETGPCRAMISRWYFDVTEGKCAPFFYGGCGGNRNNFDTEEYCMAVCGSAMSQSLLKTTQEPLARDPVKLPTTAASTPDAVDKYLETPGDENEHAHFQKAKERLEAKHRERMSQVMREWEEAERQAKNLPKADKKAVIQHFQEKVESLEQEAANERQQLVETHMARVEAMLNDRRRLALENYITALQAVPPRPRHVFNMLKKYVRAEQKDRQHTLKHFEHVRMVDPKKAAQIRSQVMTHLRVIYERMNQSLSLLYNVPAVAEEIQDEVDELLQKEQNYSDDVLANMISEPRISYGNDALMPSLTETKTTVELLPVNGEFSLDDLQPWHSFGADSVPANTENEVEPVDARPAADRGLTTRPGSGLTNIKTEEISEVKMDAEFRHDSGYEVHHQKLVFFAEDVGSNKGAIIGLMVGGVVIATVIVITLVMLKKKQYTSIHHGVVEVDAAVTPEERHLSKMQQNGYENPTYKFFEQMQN
Test [2] deals with Tubulin (Sus scrofa, UniProt P02554+P02550). Nature of the test: Inhibition of porcine brain tubulin polymerization preincubated for 1 mins followed by GTP addition and measured for 60 mins at 1 min interval by fluorescence assay.
The next test deals with HeLa. Description: Antiproliferative activity against human HeLa cells assessed as reduction in cell viability incubated for 48 hrs by MTT assay. In kind it is functional, cell-based. (Tetrazolium assays rely on reduction of a dye to a coloured formazan, in cell work by metabolically active cells.)
Test [3] deals with A549. Description: Antiproliferative activity against human A549 cells assessed as reduction in cell viability incubated for 48 hrs by MTT assay. In kind it is functional, cell-based. The conditions noted are these: A549, 48 h.
The subject of another test is Bel-7402. Nature of the test: Antiproliferative activity against human Bel-7402 cells assessed as reduction in cell viability incubated for 48 hrs by MTT assay. The test is classed as functional, cell-based. The note with it: Bel-7402, 48 h.
The next test has as its system PC-3. Description: Antiproliferative activity against human PC-3 cells assessed as reduction in cell viability incubated for 48 hrs by MTT assay. The test is classed as functional, cell-based. The note with it: PC-3, 48 h.
The subject of another test is K562. Description: Antiproliferative activity against human K562 cells assessed as reduction in cell viability incubated for 48 hrs by MTT assay. In kind it is functional, cell-based. The note with it: K562, 48 h.
In another test the target is T1, Tyrosinase (Agaricus bisporus, UniProt O42713).
T1 sequence (O42713 whole entry): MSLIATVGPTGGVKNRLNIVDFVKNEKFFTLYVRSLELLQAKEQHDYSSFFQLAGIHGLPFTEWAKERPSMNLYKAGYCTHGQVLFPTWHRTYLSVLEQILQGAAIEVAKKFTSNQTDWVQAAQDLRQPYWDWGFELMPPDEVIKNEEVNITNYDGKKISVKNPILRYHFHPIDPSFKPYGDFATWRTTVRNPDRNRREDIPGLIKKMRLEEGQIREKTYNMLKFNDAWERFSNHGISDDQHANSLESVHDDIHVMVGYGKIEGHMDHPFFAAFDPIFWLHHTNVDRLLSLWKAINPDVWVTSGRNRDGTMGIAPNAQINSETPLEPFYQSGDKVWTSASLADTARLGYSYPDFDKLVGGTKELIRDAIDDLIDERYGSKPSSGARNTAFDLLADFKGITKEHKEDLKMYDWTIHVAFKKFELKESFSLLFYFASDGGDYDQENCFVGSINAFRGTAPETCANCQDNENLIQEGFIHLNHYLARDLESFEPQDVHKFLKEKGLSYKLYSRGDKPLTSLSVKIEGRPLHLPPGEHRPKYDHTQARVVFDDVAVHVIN
Description: Inhibition of Agaricus bisporus tyrosinase using L-DOPA as substrate incubated for 10 mins by spectrophotometric analysis.

A short description of test [4]: Inhibition of Polyporus arcularius tyrosinase using L-DOPA as substrate incubated for 10 mins by spectrophotometric analysis.
The subject of another test is NCI/ADR-RES. Nature of the test: Antiproliferative activity against multi drug resistant human NCI-ADR-RES cells assessed as inhibition of cell proliferation incubated for 72 hrs by MTT assay. In kind it is functional, cell-based.
For test [5], the system named is MES-SA/Dx5. Description: Antiproliferative activity against multi drug resistant human MES-SA/Dx5 cells assessed as inhibition of cell proliferation incubated for 72 hrs by MTT assay. In kind it is functional, cell-based. The conditions noted are these: MES-SA/Dx5, 72 h.
Test [6] in a line: Antiproliferative activity against doxorubicin resistant human MDA-MB-231-Dox cells assessed as inhibition of cell proliferation incubated for 72 hrs by MTT assay. In kind it is functional, cell-based.
A further test deals with HL60/ADR. Description: Antiproliferative activity against drug resistant human HL60/ADR cells assessed as inhibition of cell proliferation incubated for 72 hrs by MTT assay. The test is classed as functional, cell-based.
Test [7] in a line: Antiproliferative activity against multidrug resistant human CEM/VLB100 cells assessed as inhibition of cell proliferation incubated for 72 hrs by MTT assay. The conditions noted are these: CEM/VLB100, 72 h. The test is classed as functional, cell-based.
In the next test the test system is KB 3-1. Nature of the test: Antiproliferative activity against multidrug resistant human KB-3-1 cells assessed as inhibition of cell proliferation incubated for 72 hrs by MTT assay. In kind it is functional, cell-based. The conditions noted are these: KB 3-1, 72 h.
Test [8] in a line: Antiproliferative activity against multidrug resistant human MV522/MDR1 cells assessed as inhibition of cell proliferation incubated for 72 hrs by MTT assay. The test is classed as functional, cell-based. The conditions noted are these: MV522/MDR1, 72 h.
Test [9] deals with Tubulin (Bos taurus, UniProt Q6B856+Q862L2+Q862F3). Description: Inhibition of bovine brain tubulin polymerization preincubated for 30 mins followed by GTP addition and measured after 20 mins by spectrophotometric analysis.
The subject of another test is THP-1. Description: Antiproliferative activity against human THP-1 cells assessed as reduction in cell viability incubated for 48 hrs by sulforhodamine assay. The conditions noted are these: THP-1, 48 h. The test is classed as functional, cell-based.
The subject of the next test is HCT-116. Nature of the test: Antiproliferative activity against human HCT-116 cells assessed as reduction in cell viability incubated for 48 hrs by sulforhodamine assay. The test is classed as functional, cell-based. The note with it: HCT-116, 48 h.
For a further test, the system named is MCF7. Nature of the test: Antiproliferative activity against human MCF7 cells assessed as reduction in cell viability incubated for 48 hrs by sulforhodamine assay. The test is classed as functional, cell-based. The conditions noted are these: MCF7, 48 h.
For another test, the system named is T47D. Description: Antiproliferative activity against human T47D cells assessed as reduction in cell viability incubated for 48 hrs by sulforhodamine assay. In kind it is functional, cell-based.
Test [10] has as its system A549. Nature of the test: Antiproliferative activity against human A549 cells assessed as reduction in cell viability incubated for 48 hrs by sulforhodamine assay. In kind it is functional, cell-based. The note with it: A549, 48 h.
Test [11] addresses T2, Amine oxidase [flavin-containing] A (Homo sapiens, UniProt P21397).
T2 sequence (P21397 whole entry): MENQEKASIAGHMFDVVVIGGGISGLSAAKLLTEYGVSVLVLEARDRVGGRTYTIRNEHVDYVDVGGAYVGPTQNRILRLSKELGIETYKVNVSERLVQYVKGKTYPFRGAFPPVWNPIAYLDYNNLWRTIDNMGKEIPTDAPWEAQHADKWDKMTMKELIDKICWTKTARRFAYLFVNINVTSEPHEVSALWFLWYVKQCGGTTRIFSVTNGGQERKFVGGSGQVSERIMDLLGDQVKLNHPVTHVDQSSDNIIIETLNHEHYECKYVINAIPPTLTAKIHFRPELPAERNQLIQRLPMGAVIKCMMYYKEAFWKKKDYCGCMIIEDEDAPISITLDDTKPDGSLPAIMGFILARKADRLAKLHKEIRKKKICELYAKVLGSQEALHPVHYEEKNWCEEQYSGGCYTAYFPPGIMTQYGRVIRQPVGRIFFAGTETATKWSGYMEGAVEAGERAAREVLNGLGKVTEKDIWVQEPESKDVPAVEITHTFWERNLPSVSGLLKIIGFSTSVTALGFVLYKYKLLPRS
Nature of the test: Inhibition of recombinant human MAO-A assessed as inhibition of 4-hydroxyquinoline formation using kynuramine as substrate incubated for 20 mins by fluorescence assay.

The target of test [12] is T3, Amine oxidase [flavin-containing] B (Homo sapiens, UniProt P27338).
T3 sequence (P27338 whole entry): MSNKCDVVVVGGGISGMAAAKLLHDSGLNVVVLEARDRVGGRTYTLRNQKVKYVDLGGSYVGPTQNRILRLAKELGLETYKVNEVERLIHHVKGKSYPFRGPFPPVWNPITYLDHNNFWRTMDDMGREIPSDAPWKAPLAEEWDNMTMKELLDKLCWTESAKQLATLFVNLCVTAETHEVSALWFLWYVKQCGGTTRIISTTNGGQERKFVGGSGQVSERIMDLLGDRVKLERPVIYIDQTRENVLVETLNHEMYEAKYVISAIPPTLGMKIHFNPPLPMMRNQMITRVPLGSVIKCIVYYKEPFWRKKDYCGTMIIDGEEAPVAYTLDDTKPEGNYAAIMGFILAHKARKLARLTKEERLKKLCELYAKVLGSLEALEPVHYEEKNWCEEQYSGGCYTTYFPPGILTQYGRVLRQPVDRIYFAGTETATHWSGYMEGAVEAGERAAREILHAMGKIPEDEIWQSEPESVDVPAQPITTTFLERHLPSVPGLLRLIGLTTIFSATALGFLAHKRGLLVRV
Description: Inhibition of recombinant human MAO-B assessed as inhibition of 4-hydroxyquinoline formation using kynuramine as substrate incubated for 20 mins by fluorescence assay.

Test [13] is described as follows: Inhibition of Saccharomyces cerevisiae full-length ai5gamma intron self-splicing by fluorimetric assay.
For the next test, the system named is Candida parapsilosis. Nature of the test: Antifungal activity against Candida parapsilosis assessed as reduction in fungal growth. The conditions noted are these: Lodderomyces parapsilosis. The test is classed as functional.
Another test concerns MES-SA. Nature of the test: Antiproliferative activity against human MES-SA cells assessed as reduction in cell viability incubated for 72 hrs by PrestoBlue cell viability assay. In kind it is functional, cell-based.
Test [14] relates to MES-SA/Dx5. Nature of the test: Antiproliferative activity against doxorubicin resistant human MES-SA/Dx5 cells assessed as reduction in cell viability incubated for 72 hrs by PrestoBlue cell viability assay. In kind it is functional, cell-based. The note with it: MES-SA/Dx5, 72 h.
Test [15] is described as follows: Selectivity ratio of IC50 for antiproliferative activity against human MES-SA cells to IC50 for antiproliferative activity against doxorubicin resistant human MES-SA/Dx5 cells. The test is classed as functional.
Test [16] deals with Glycogen synthase kinase-3 beta (Homo sapiens, UniProt P49841). Nature of the test: Inhibition of recombinant GSK-3beta (unknown origin) using GS peptide as substrate in presence of ATP incubated for 1 hrs by ADP-Glo kinase assay. In general terms: ADP-Glo first removes unused ATP, then detects ADP through luciferase.
Glycogen synthase kinase-3 beta, sequence (P49841 whole entry): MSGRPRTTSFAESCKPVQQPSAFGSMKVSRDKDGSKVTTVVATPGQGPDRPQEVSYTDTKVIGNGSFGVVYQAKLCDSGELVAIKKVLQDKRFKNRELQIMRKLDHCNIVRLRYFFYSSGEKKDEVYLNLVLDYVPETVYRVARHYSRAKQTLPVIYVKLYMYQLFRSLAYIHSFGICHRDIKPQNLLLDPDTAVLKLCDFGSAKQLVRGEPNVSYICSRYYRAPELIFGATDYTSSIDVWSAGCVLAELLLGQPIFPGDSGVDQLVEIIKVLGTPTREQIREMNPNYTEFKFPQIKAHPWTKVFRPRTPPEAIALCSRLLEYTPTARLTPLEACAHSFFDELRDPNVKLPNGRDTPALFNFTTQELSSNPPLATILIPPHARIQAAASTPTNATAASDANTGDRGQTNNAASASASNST

Values after ≈ are worked out from the molar mass of the structure shown.

On to `COc1cc(C2/C(=C/c3ccc4c(c3)OCO4)C(=O)c3cc(OC)c(OC)c(OC)c32)cc(OC)c1OC` (centres undefined), for which, in the test on Ehrlich, the inhibition in vivo at 20 mg/kg amounted to 45.5%.

One may read the Ki as a dissociation constant, usually derived from enzyme kinetics or from competition with a known ligand. The low end stands for a stronger hold on the target, the high end for a looser hold on the target. As for `CN(C)c1ccc(/C=C2\Nc3ccc(I)cc3C2=O)cc1`, the Ki in test [1] is 240 nM.

The term IC50 denotes the concentration needed to halve the response being measured. Take `COc1cc2c(c(OC)c1OC)C/C(=C\c1cccc3[nH]ccc13)C2=O`: the IC50 came out at 1990 nM on Tubulin [2]; 30 nM with HeLa; 30 nM with A549 [3]; 30 nM in the test on Bel-7402; 30 nM in the test on PC-3; 30 nM in the test on K562.

On to `O=C1/C(=C/c2ccc(O)cc2O)Oc2cccc(O)c21`, for which the IC50 on Tyrosinase came out at 4000 nM; in [4], 34000 nM.

For the compound `COc1cc2c(c(N)c1OC)C(=O)/C(=C/c1cc(C)c(O)c(C)c1)C2`, the concentration for half-maximal inhibition (IC50) (in the test with NCI/ADR-RES; in the test on MES-SA/Dx5 [5]; in test [6]; in the test on HL60/ADR; in test [7]; in the test on KB 3-1) was 2 nM in each case. The values for the concentration for half-maximal inhibition (IC50) (in [8]; at Tubulin [9]) were 2 nM and 1700 nM, respectively.

Turning to `COc1cc(C2/C(=C/c3ccc([N+](=O)[O-])cc3)C(=O)c3cc(OC)c(OC)c(OC)c32)cc(OC)c1OC` (centres undefined), the IC50 against Tubulin [2] worked out at 1500 nM; in the test on THP-1, 4000 nM; in the test on HCT-116 it was 4000 nM; with MCF7, 4000 nM; in the test on T47D, 4000 nM; with A549 [10] it was 4000 nM.

With `COc1ccc2c(c1)C/C(=C\c1ccc(Br)o1)C2=O`, the values for the half-maximal inhibitory concentration (IC50) in test [11] and in test [12] were 180 nM and 40 nM, respectively.

A word on the MIC: it is the lowest concentration that inhibits growth of the organism. In turn, `O=C1/C(=C/c2cc(O)c(O)c(O)c2)Oc2cc(O)cc(O)c21` displayed a Ki in test [13] of 5800 nM. The MIC in the test with Candida parapsilosis is 30 µM (≈ 9.07 µg/mL).

For `O=C1/C(=C(\O)c2cccc(Br)c2)Sc2ccccc21`, the IC50 in [11] stood at 63000 nM; in [12], 350 nM.

Regarding `COc1cc(OC)c2c(c1)O/C(=C\c1ccc(N(C)C)cc1)C2=O`, the values for the IC50 in the test with MES-SA and in the test on MES-SA/Dx5 [14] were 60000 nM and 15000 nM, respectively. Moreover, in test [15], the “Ratio IC50” value was 4.

For `O=C1/C(=C/c2c[nH]c3ncccc23)Oc2cc(OCc3cccc(F)c3)ccc21`, the IC50 in [16] amounted to 450 nM.
